# Experimental data published in US8193378B2, “2H-chromene compound and derivative thereof” (Astellas Pharma Inc., priority 2008, dated 2012).
# Key:
# [1] = test system: peripheral blood lymphocytes; experiment: Reduction of number of peripheral blood lymphocytes in rat (Test Example 2); type: in vivo; conditions: Lymphocyte, male Lewis rats, oral, 24 hours after administration, read-out: B: ED50 24 h, reduction of number of lymphocytes in peripheral blood
# Experimental: Evaluation of Reduction of Number of Peripheral Blood Lymphocytes in Rat
# The action on the peripheral blood lymphocytes were evaluated using rats. 6- to 10-week-old male Lewis rats (Japan Charles River Laboratories Japan, Inc.) were randomly divided into groups (n=3), and the compound of the present invention was suspended in 0.5% methyl cellulose-containing distilled water, and orally administered with a sonde. At 4 hours or 24 hours after administration, 0.2 ml of blood was collected from the ocular fundus under ether anesthesia. To the blood sample were immediately added EDTA.4K and heparin to prevent clotting, and the number of the lymphocytes in blood was measured with an automatic hematocyte analyzer (Sysmex Corp.; XT-2000i). For the reduction of the number of the lymphocytes in peripheral blood by the compound of the present invention, the percentage with the number of the lymphocytes in groups administered with 0.5% methyl cellulose-containing distilled water being set at 100%, as performed at the same time, were used, and the dose to cause 50% reduction of the number of the lymphocytes in the peripheral blood by administration of the compound of the present invention was defined as an ED50 value (mg/kg).
# human S1P1 = biological target: T1, human S1P1 (Homo sapiens, UniProt P21453); experiment: Ca2+ influx assay using human S1P1 expressing cell (Test Example 1, Method 2); type: cell-based; conditions: method 2, Ca2+ influx, human S1P1 expressing CHO cell (values with *); read-out: A: EC50, in vitro S1P1 agonist action (value with *)
# T1 construct: expressed in transfected cells; membrane fraction used
# Experimental: Evaluation of In Vitro S1P1 Receptor Agonist Activity in Biological Body
# (Method 2) Method for Evaluation of Receptor Agonist Action by Ca^2+ Influx Assay Using Human S1P1 Expressing Cell
# The in vitro S1P1 agonist action of the compound of the present invention was evaluated by the increase in the Ca^2+ concentration in a human S1P1 expressing cell. A cDNA encoding a human S1P1 was cloned from a human colorectal cDNA library and introduced to an expression vector pcDNA3.1 to construct a S1P1-pcDNA3.1. Then, by Lipofectamine 2000 (GIBCO), the S1P1-pcDNA3.1 was transfected into a CHO cell, and cultured in a Ham's F-12 culture medium containing 10% fetal bovine serum, 100 U/mL penicillin, 100 μg/mL streptomycin, and 1 mg/mL G418 disulfate, to obtain a stable, G418-resistant strain. The cultured human S1P1 expressing cells were isolated in a 1 mM EDTA.2Na-containing PBS and suspended in a Ham's F-12 culture medium containing 10% fetal bovine serum, 100 U/mL penicillin, and 100 μg/mL streptomycin. This cell suspension was dispensed to a 96-well plate at 50000 cells/well, and cultured at a CO2 incubator (5% CO2, 37° C.) overnight. The culture medium was replaced with a calcium-sensitive fluorescent reagent (FLIPR (registered trademark) calcium 3 assay kit, molecular device)-containing loading buffer (Hank's balance salt solution, 20 mM HEPES, 2.5 mM probenecid) and left stand at a CO2 incubator (5% CO2, 37° C.) for 1 hour. The plate was set at a Functional Drug Screening System FDSS6000 (Hamamatsu Photonics K. K.), and persistently measured 124 times every 1.02 second at an excitation wavelength of 480 nm. The test compound (final concentration 10^−12 to 10^−5 M) was added at the same time as the 12th measurement, and the change in the Ca^2+ concentration in cells was evaluated by the change in the fluorescent strength. For evaluation of the human S1P1 agonist action of the compound of the present invention and the comparative compound, the percentages with the rate of a maximum reaction to make the increase in the Ca^2+ concentration in cells saturated after the addition of the compound being set at 100% and the rate of the increase in the Ca^2+ concentration in cells by the addition of a vehicle alone being set at 0% were used, a non-linear regression curve was plotted, and a concentration to cause an agonist action operating 50% of the maximum reaction was defined as an EC50 value (nM).
# [2] = Infrequent pulse expression using awake rats (Test Example 5); type: in vivo, rat; conditions: awake male Lewis rats, intravenous infusion for 10 minutes, 1 mg/kg administration
# Experimental: Evaluation of Infrequent Pulse Expression Using Awake Rats Male Lewis rats were anesthetized with isoflurane inhalation and a polyethylene tube was intubated into the femoral artery and vein. It was connected to a blood pressure measuring amplifier•heart rate unit via a pressure transducer from an arterial line, and the arterial blood pressure and the heart rate were measured. Intravenous line from Vehicle (10% HCO40/tween80/PEG, 90% saline) and the present compounds were intravenously infused persistently at a rate of 1 mL/kg/min for 10 minutes. The measurement data were read (for a total evaluation time of 20 minutes) from a chart of the values before administration, at 1, 2, 5, and 10 min after the start of constant infusion, and at 1, 2, 5, and 10 min after the completion of infusion, and thus, for the heart rate and the blood pressure before administration, the decrease rates (%) before and after infusion were calculated.
# T1 sequence (P21453 whole entry): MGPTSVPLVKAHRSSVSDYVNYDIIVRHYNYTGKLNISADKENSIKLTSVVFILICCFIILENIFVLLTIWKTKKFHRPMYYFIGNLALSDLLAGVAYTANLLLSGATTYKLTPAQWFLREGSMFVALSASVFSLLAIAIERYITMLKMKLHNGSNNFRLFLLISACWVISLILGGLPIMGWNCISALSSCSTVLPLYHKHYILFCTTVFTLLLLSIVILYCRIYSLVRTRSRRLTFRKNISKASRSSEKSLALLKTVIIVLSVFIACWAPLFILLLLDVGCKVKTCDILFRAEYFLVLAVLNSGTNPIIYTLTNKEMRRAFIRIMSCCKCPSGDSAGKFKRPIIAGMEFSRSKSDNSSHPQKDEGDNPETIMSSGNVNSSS
EC50 (human S1P1) [nM],infrequent pulse expression [2],SMILES,ED50 [1] [mg/kg],influence on the heart rate and the blood pressure [2]
7,not expressed,Cl.O=C(O)[C@H]1CCCN(CC2=Cc3c(F)cc(OCc4ccc(OC(CF)CF)c(C(F)(F)F)c4)cc3OC2)C1 [Ex 230],0.19,does not have an influence
2.2,–,Cl.O=C(O)[C@@H]1CCCN(CC2=Cc3ccc(OCc4ccc(OCC(F)(F)F)c(C(F)(F)F)c4)cc3OC2)C1 [Ex 160],0.26,–
32,–,Cl.O=C(O)[C@H]1CCCN(CC2=Cc3c(F)cc(OCc4ccc(OCC(F)(F)F)c(C(F)(F)F)c4)cc3OC2)C1 [Ex 236],0.1,–
